molecular target: T1, Glucokinase (GK) (Homo sapiens, UniProt P35557); experiment: microscale thermophoresis with labelled recombinant GK; also coupled G6PDH enzyme activation assay (EC50 ca. […]); type: binding; settings: read-out: Dissociation constant with GK / Kd
T1 construct: gene GCK; full-length human glucokinase (GenBank: BC001890.1), C-terminally hexa-histidine tagged
T1 sequence (P35557 1-465): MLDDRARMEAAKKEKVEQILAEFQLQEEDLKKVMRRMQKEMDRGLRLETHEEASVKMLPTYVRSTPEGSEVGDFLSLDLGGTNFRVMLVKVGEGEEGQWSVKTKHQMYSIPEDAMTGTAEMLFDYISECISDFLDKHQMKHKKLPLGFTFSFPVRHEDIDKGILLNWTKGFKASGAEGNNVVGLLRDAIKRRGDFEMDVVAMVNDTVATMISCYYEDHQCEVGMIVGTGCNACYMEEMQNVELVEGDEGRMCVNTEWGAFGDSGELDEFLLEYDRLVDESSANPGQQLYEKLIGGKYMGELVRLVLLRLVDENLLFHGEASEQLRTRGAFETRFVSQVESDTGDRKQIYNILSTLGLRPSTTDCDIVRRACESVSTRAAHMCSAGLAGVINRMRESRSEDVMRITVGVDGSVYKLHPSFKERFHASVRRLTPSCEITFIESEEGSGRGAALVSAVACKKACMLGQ

Row | Structure (SMILES) | Kd [µM]
1 | O=c1c2cc(O)c(O)cc2oc2cc(O)c([C@@H]3O[C@H](CO)[C@@H](O)[C@H](O)[C@H]3O)c(O)c12 [compound 7, mangiferin] | 472 ± 20.5

molecular target: T1, Glucokinase (GK); experiment: biochemical; set-up: G6PDH-coupled spectrophotometric glucokinase activity, NADPH absorbance at 340 nm, 10 mM glucose, 37 °C; settings: not given
Protocol: The in vitro efficacy of twelve compounds was assessed in two separate steps: a SC50 assay to evaluate the potency of each compound at a unified compound concentration of 50 μM. Then, we seek to obtain the values of EC50 and kinetic parameters Ka, Vmax of promising compounds, according to a reported method with minor modifications. Briefly, Twelve compounds unified in the same concentration of 50 μM were assayed in a 96-well plate with a final reaction volume of 100 μl. The reaction mixture consisted of 25 mM Hepes (pH 7.5), 10 mM glucose, 1 mM ATP, 4 U/ml G6PDH (Sigma-Aldrich Co. LLC., St. Louis, MO, USA), 1 mM NADP, 2.5 mM MgCl, 50 mM KCl, 2 mM DTT, […] recombinant human glucokinase and test compounds. The whole reaction mixtures were kept under 37 °C for 20 minutes. The increase in the rate of absorbance of NADPH generated in the reactions was monitored kinetically at 340 nm. The values were calculated by comparing with untreated GK. This term is called the efficacy of stimulatory concentration (SC50). Then, the EC50 of promising candidates were determined in the presence of various fixed concentrations of compound 7 (2–300 μM). Values were calculated by fitting enzymatic rates to the Hill equation by using GraphPad Prism 5.01. In order to further investigate the activation effect of the twelve compounds on GK enzymatic activity, the recombinant GK protein had been successfully obtained by genetic engineering method. Evaluation of the twelve hits on enzymatic activity was assessed spectrometrically by a coupled reaction with glucose-6-phosphate dehydrogenase. […] The activation percentage was the GK enzyme activity in each group compared to that of the blank control group. Each compound was assayed triply. The value presents in a column as the mean ± SD (n = 3). *P < 0.05, **P < 0.01, compared to the blank control group.

Row | Structure (SMILES) | EC50 [µM]
2 | O=c1c2cc(O)c(O)cc2oc2cc(O)c([C@@H]3O[C@H](CO)[C@@H](O)[C@H](O)[C@H]3O)c(O)c12 [compound 7, mangiferin] | 156

same assay, conditions: untreated GK = 100%; read-out: % of control remaining

Row | Structure (SMILES) | remaining activity at 50 µM [%]
3 | Cc1nc(S)sc1CC(=O)Nc1c[nH]ccc1=O [compound 3, 3] | 46.7 ± 1.21
4 | CC(O)CNc1nc2ccccc2n1Cc1nc(N)nc(N(C)C)n1 (centres unmarked) [compound 8, 8] | 92 ± 0.96
5 | O=c1c2cc(O)c(O)cc2oc2cc(O)c([C@@H]3O[C@H](CO)[C@@H](O)[C@H](O)[C@H]3O)c(O)c12 [compound 7, mangiferin] | 126 ± 2.83
6 | Cn1ccc(NC(=O)N(Cc2ccccc2)CC(O)c2ccco2)n1 (centres unmarked) [compound 9, 9] | 82.4 ± 6.72

Further lines, results first:

Row | remaining activity at 50 µM [%] | Structure (SMILES)
7 | 87.6 ± 5.67 | Cc1sc2ncnc(SCC(=O)Nc3c[nH]ccc3=O)c2c1C [compound 5, 5]
8 | 94.3 ± 1.49 | O=C1NCC(c2ccc(Cl)cc2)Cc2[nH]c(-c3ncc[nH]3)nc21 (centres unmarked) [compound 10, 10]
9 | 86.1 ± 5.68 | O=C(Nc1nc(-c2c[nH]c3ccccc23)cs1)c1cnccn1 [compound 1, 1]
10 | 75.9 ± 6.72 | COc1ccccc1C(=O)Nc1cccc(NC(=O)c2ncc[nH]2)c1 [compound 11, 11]
11 | 90 ± 3.88 | O=C(NCC(c1cccs1)c1c[nH]c2ccccc12)c1ccccn1 (centres unmarked) [compound 6, 6]
12 | 37.8 ± 12 | Oc1ccc(Nc2ncnc3sccc23)cc1CN1CCOCC1 [compound 4, 4]
13 | 86.5 ± 5.71 | NC(=O)c1coc(-c2csc(NC(=O)c3ccc(Cl)cc3)n2)c1 [compound 2, 2]

molecular target: T1, Glucokinase (GK); experiment: microscale thermophoresis with labelled recombinant GK; type: binding; settings: read-out: Dissociation constant with GK / Kd

Row | Structure (SMILES) | Kd [µM]
14 | O=C(Nc1ncc(SCCN2CCCC2)s1)[C@]1(c2ccc(S(=O)(=O)C3CC3)cc2)C[C@H]1C1CCCCC1 [LY2608204] | 600 ± 36.1
